Data taken from patent US8097608B2, “Methods for treatment of cardiovascular disorders and diseases” (Technion Research and Development Foundation Ltd., priority 2003, dated 2012).

Key:
[1] = tested on: neonatal rat ventricular myocytes; test: Fas-mediated hypertrophy in cultured neonatal rat ventricular myocytes (ANP mRNA, RT-PCR); assay type: cell-based; settings: rFasL 24 hours; for ANP mRNA elevation induced by Fas activation: 10 μM, 3 experiments per drug
Protocol: In order to test whether rasagiline can prevent the marked hypertrophy induced in cultured neonatal rat ventricular myocytes (for methods, see Yaniv et al., 2002), Fas was activated for 24 hours by incubation with rFasL (10 ng/ml plus 1 μg/ml of the enhancer antibody). Hypertrophy was assessed by determining the mRNA levels (by means of RT-PCR) of the atrial natriuretic peptide (ANP), which is a most common molecular marker of hypertrophy. Rasagiline ([…]) was added to the culture 1 hour before Fas activation and remained in the medium throughout the 24 hours exposure to rFasL.
In order to test whether S(−)—N-propargyl-1-aminoindan and propargylamine have the same effect on marked hypertrophy induced in cultured neonatal rat ventricular myocytes, similar experiments were performed using either propargylamin or S(−)—N-propargyl-1-aminoindan (both at a concentration of 10 μM) instead of rasagiline.

[2] = tested on: Bax, Bcl-2, PKC-ε in hearts of naïve rats; test: Anti-apoptotic and pro-apoptotic proteins in hearts of naive rats; assay type: in vivo, rat; settings: 5 mg/kg/day orally for 21 days
Protocol: In this experiment we tested the effects of propargylamine and S(−)—N-propargyl-1-aminoindan on several key anti-apoptotic and pro-apoptotic proteins in hearts of naïve rats.
The drugs (5 mg/kg/day) were orally administered to rats for 21 days (n=4-6 rats in each group), and measurements were made after sacrifice. […] Furthermore, both propargylamine and S(−)—N-propargyl-1-aminoindan increased the expression of the key anti-apoptotic PKC-ε (FIGS. 9D-9E, respectively).

[3] = tested on: CHF rats; test: Echocardiography in volume overload-induced CHF rats (AVF); assay type: in vivo, rat; settings: 7.5 mg/kg/day orally, 21 days from 7 days prior to surgery; for Reduction in fractional shortening: day 21 (14 days post-surgery)
Protocol: (§1) (v) Animals. Studies were conducted on male Sprague Dawley rats (Harlan Laboratories Ltd., Jerusalem, Israel), weighing ˜300 g. The animals were kept in a temperature-controlled room and maintained on standard rat diet (0.5% NaCl). All experiments were performed according to the guidelines of the Technion Committee for Supervision of Animal Experiments (Haifa, Israel). […] Sham-operated rats served as controls. Drugs (or saline as control) were orally administered, starting 7 days prior to surgery (day 0) and were continued for 21 days. Surgery was performed on day 7 and animals sacrified 14 days post-surgery (day 21). Cardiac function was determined by echocardiography on days 0, 10 (3 days post-surgery) and 21 (before sacrifice). After the last echocardiography measurement, rats were sacrified and hearts were analyzed.
Rats were treated as described in Materials and Methods hereinabove and volume overload was induced by surgical creation of an aortocaval fistula (AVF). Drugs (7.5 mg/kg/day) were administered according to the protocol described above, starting 7 days prior to surgery (day 0) and during 21 days. Cardiac function was determined by echocardiography, from which two principle parameters, namely, diastolic area and systolic area, were calculated. These parameters were used for calculating the fractional shortening, which is an established measure of the ventricular contraction capacity, according to the equation: Fractional shortening =(diastolic area-systolic area)/diastolic area.

[4] = tested on: H9c2 cells; test: Fas-mediated (rFasL) apoptosis in H9c2 cells, DAPI staining; assay type: cell-based, rat; settings: added 16 hours before and present throughout
Protocol: (§2) (ii) Cell Line H9c2. Experiments were performed on the embryonic rat heart cell line H9c2. H9c2 cells were cultured in DMEM (Biological Industries, Beit-Haemek, Israel) supplemented with 10% fetal calf serum (FCS), 50 units/ml penicillin G, 50 μg/ml streptomycin sulfate, 2 mg/ml L-glutamine and sodium pyruvate. H9c2 cells were harvested by trypsinization, washed with PBS, diluted to a concentration of 5×10^4 cells/ml with DMEM (high glucose) and cultured at 0.5 ml/well on sterile glass cover slips in 24-well plates.
(c) Activation of the Fas receptor—Fas activation was induced by incubating the cultures with recombinant human Fas Ligand (rFasL; 10 ng/ml) plus the enhancing antibody (1 μg/ml) for the indicated times, according to the manufacturer's recommendations (Alexis Biochemicals, San Diego, Calif.).
(§3) (iv) Determination of Apoptosis by DAPI. Cultures were counterstained with 4′, 6-diamidino-2-phenylindole (DAPI) to visualize the nuclear morphology.
Cultures of embryonic rat heart cell line H9c2 were incubated with rFasL (10 ng/ml) and an enhancing antibody for periods of time of 9, 10 and 24 hours, and apoptosis measured thereafter.
In order to determine whether rasagiline can prevent Fas-mediated apoptosis, the Fas receptor was activated for 9, 10 and 24 hours as described above. Rasagiline (10 μM) was introduced to the culture medium 16 hours before, and was present throughout the apoptosis-inducing protocol (n=3 wells).
Each one of the drugs, at a concentration of either 0.1 or 1.0 μM was introduced to the culture medium 16 hours before, and was presented throughout the apoptosis-inducing protocol (n=3 wells).

[5] = tested on: neonatal rat ventricular myocytes; test: Doxorubicin-induced apoptosis in neonatal rat ventricular myocytes (caspase-3 cleavage); assay type: cell-based; settings: 1 or 10 μM, added 24 hours before; 1 μM doxorubicin 24 hours
Protocol: In order to test whether propargylamine or S(−)—N-propargyl-1-aminoindan can prevent doxorubicin-induced apoptosis in cultured neonatal rat ventricular myocytes, these drugs (at a concentration of either 1 or 10 μM) were introduced to the culture medium 24 hours before the incubation (24 hours) with 1 μM doxorubicin.

[6] = tested on: H9c2 cells; test: Serum starvation-induced apoptosis in H9c2 cells, MTT staining assay; assay type: cell-based, rat; settings: 0.1-10 μM; 0% FCS for 24 hours
Protocol: (§4) (b) Serum starvation—To induce apoptosis, H9c2 cultures were incubated in the culture medium containing 0% FCS for the indicated times.

[7] = tested on: caspase-3 and cytochrome C in CHF rats; test: Caspase-3 and cytosolic cytochrome C in volume overload-induced CHF rats (AVF); assay type: in vivo, rat
Protocol: as §1
Rats were treated as described in Materials and Methods hereinabove and volume overload was induced by surgical creation of an aortocaval fistula (AVF). Sham-operated rats served as controls. 14 days after induction of volume-overload, caspase-3 cleavage and cytosolic cytochrome C, both pro-apoptotic proteins, were analyzed.
In the following experiment we tested whether propargylamine or S(−)—N-propargyl-1-aminoindan can reduce CHF-induced increase in caspase-3 and cytochrome C. Rats were treated and drugs were administered (1 or 7.5 mg/kg/day S(−)—N-propargyl-1-aminoindan, or 5 mg/kg/day propargylamine) as described in Materials and Methods hereinabove.

[8] = tested on: naïve rats; test: Cardiovascular hemodynamic parameters in naive rats after IV bolus; assay type: in vivo, rat
Protocol: As the first step in testing the beneficial in vivo efficacy of the propargylamine derivatives on the cardiac function, we measured key cardiovascular hemodynamic parameters in control naïve rats, and in rats administered IV with a bolus of 1 mg/kg S(−)—N-propargyl-1-aminoindan, followed with a bolus of 10 mg/kg S(−)—N-propargyl-1-aminoindan (Sprague Dawley rats were used, n=3 rats in each group). Measurements were made at baseline, 30 minutes after each drug administration, and 1 hour (recovery) after drug administration.

[9] = tested on: neonatal rat ventricular myocytes; test: Serum starvation-induced apoptosis in neonatal rat ventricular myocytes (caspase-3 cleavage, Bcl-2); assay type: cell-based; settings: 0.1 μM, added 1 hour before; 0% FCS, 24 hours
Protocol: Caspase-3 is a protein of the cysteine-aspartic acid protease (caspase) family, known as a key pro-apoptotic protein and therefore as a common marker of apoptosis.
In order to test whether propargylamine can prevent serum starvation-induced apoptosis in cultured neonatal rat ventricular myocytes, we repeated the serum starvation protocol and 0.1 μM propargylamine was introduced to the culture medium 1 hour before serum starvation. As shown in FIGS. 6B-6C, propargylamine attenuated serum starvation-induced apoptosis in neonatal rat ventricular myocytes as indicated both by the drug-induced decrease in caspase 3 cleavage (FIG. 6B) and increase in the expression of mitochondrial Bcl-2, known as an anti-apoptotic protein (FIG. 6C).

[10] = tested on: H9c2 cells; test: Serum starvation-induced apoptosis in H9c2 cells, DAPI staining; assay type: cell-based, rat
Protocol: as §2, §4, §3
The next apoptosis-inducing stimulus tested was serum starvation ([…], 0% serum in the culture medium). To induce apoptosis, H9c2 cells were incubated in the culture medium containing 0% FCS for 6, 7, 8 or 9 hours. Rasagiline (10 μM) was introduced to the culture medium 2 hours before inducing serum starvation and was present throughout the apoptosis-inducing protocol (n=3 wells).
In another experiment, we repeated the serum starvation protocol, and also tested in the same cultures whether rasagiline can protect against H2O2-induced apoptosis. Rasagiline was introduced to the culture medium 2 hours before inducing serum starvation or adding H2O2, and was present throughout the apoptosis-inducing protocol (n=4 experiments; ˜2000 cells counted).

[11] = 0.1 or 1.0 μM, ~10 hours incubation with rFasL (~10% apoptosis)
[12] = 10 mg/kg IV bolus, 30 minutes after administration

C#CCN[C@H]1CCc2ccccc21 [S(−)—N-propargyl-1-aminoindan]
ANP mRNA elevation induced by Fas activation [1]: completely blocked | Expression of anti-apoptotic PKC-ε [2]: increased | Reduction in fractional shortening [3]: completely prevented | Hypertrophic increase in the diastolic area ([3]; days 10 and 21): completely prevented | Hypertrophic increase in the systolic area ([3]; days 10 and 21): completely prevented | Fas-mediated apoptosis [4, 11]: completely prevented | Doxorubicin-induced apoptosis (caspase-3 cleavage) [5]: significantly attenuated | Anti-apoptotic effect, serum starvation, MTT staining [6]: anti-apoptotic effect | CHF-induced increase in cytochrome C ([7]; 1 mg/kg/day orally for 21 days (FIG. 11B)): significantly reduced | CHF-induced increase in caspase-3 ([7]; 7.5 mg/kg/day orally for 21 days (FIG. 11A)): significantly reduced | Cardiac index [8, 12]: markedly increased | Cardiac output [8, 12]: markedly increased | Heart rate [8, 12]: did not affect | Mean arterial pressure (MAP) [8, 12]: did not affect | Reversibility of the effect on cardiac function ([8]; washout period (recovery, 1 hour after administration)): reversible

C#CCN [propargylamine]
ANP mRNA elevation induced by Fas activation [1]: completely blocked | Expression of anti-apoptotic PKC-ε [2]: increased | Expression of mitochondrial anti-apoptotic protein Bcl-2 [2]: markedly increased | Expression of mitochondrial pro-apoptotic protein Bax [2]: did not affect | Ratio Bcl-2/Bax [2]: marked increase | Hypertrophic increase in the diastolic area ([3]; 14 days post-surgery): completely prevented | Hypertrophic increase in the systolic area ([3]; 14 days post-surgery): completely prevented | Reduction in fractional shortening [3]: completely prevented | Fas-mediated apoptosis [4, 11]: completely prevented | Doxorubicin-induced apoptosis (caspase-3 cleavage) [5]: significantly attenuated | Caspase 3 cleavage, serum starvation [9]: decrease | Expression of mitochondrial Bcl-2, serum starvation [9]: increase | CHF-induced increase in caspase-3 ([7]; 5 mg/kg/day orally for 21 days): significantly reduced | CHF-induced increase in cytochrome C ([7]; 5 mg/kg/day orally for 21 days (FIG. 11B)): significantly reduced

C#CCN[C@@H]1CCc2ccccc21 [rasagiline, R(+)—N-propargyl-1-aminoindan]
Fas-mediated hypertrophy (ANP mRNA) ([1]; 10 μM/ml, added 1 hour before, preliminary, data not shown): prevented Fas-mediated hypertrophy | Serum starvation-induced apoptosis ([10]; 10 μM, added 2 hours before, 9 hrs serum starvation (12% apoptosis)): completely prevented | Anti-apoptotic effect, serum starvation ([10]; 0.1-10 μM, added 2 hours before, 0% FCS for 24 hours): anti-apoptotic effect | Apoptosis induced by serum starvation ([10]; Example 3, added 2 hours before, n=4 experiments): prevented | Fas-mediated apoptosis ([4]; 10 μM, 10 hours incubation with rFasL (~20% apoptosis)): completely prevented
